From patent US20200206233A1 (INTEGRAL BIOSCIENCES PRIVATE LIMITED, priority 2018, published 2020)
pIC50: −log10 of the molar value.

Molecular target: T1, IDH1 mutant (R132H) (Homo sapiens, UniProt O75874, R132H)
T1 construct: purchased BPS Bioscience 71099-2
Experiment: Mutant IDH1-R132H Fluorescence Assay (Resazurin based)
Type: biochemical
Details: 10 nM IDH1 R132H, 4 mM α-ketoglutarate, NADPH, 1.5 h at room temperature
Protocol: IC50 values of compounds against IDH1 mutant (R132H) was determined by Resazurin based Fluorescence assay. Assays were performed in Buffer (25 mM Tris HCl, 150 mM NaCl, 10 mM MgCl2, 0.03% BSA, 2 mM 1-mercaptoethanol) where total reaction volume was 12.5 μL in low-volume 384-well plates (Cat #4511, Corning). Serially diluted compounds (3-fold) were incubated with cocktail of α-ketoglutarate (4 mM; Cat #75892-25G, Sigma), NADPH ([…]; Cat # N1630-100MG, Sigma) and buffer for 5 min, following IDH1 R132H mutant (10 nM; Cat #71099-2, BPS Bioscience) was added and incubated in dark at room temperature for 1.5 h. After 1.5 h, 6.25 μL detection solution containing Resazurin ([…]; (Cat #62758-13-8, Sigma) and Diaphorase (40 ug/ml; Cat # D2197-300UN, Sigma) in buffer was added and incubated for 15 min. Readings were taken in a Synergy Neo Plate reader (BioTek, Winooski) at single excitation of 540 nm and emission at 590 nm respectively.
The % (percent) activity of test samples was calculated as (Sample−Min)×100/(Max−Min). [Max: DMSO control, complete reaction with enzyme with DMSO and Min: No enzyme with DMSO]. Percent inhibition (100−% activity) was fitted to the “four-parameter logistic model” in XLfit for determination of IC50 values.

T1 sequence (O75874 whole entry R132H): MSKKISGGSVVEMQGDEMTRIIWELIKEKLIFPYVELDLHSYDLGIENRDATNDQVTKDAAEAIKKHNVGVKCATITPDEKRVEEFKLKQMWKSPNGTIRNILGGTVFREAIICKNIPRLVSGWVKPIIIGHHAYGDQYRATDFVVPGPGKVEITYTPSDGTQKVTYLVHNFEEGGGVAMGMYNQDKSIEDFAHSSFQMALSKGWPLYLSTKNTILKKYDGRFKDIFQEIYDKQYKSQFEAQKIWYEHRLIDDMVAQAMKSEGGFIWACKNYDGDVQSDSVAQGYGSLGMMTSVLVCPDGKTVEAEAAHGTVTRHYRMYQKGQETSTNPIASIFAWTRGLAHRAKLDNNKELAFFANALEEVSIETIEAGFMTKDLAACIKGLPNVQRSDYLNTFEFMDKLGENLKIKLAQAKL

Row | SMILES | pIC50
1 | CC[C@H]1COC(=O)N1c1nc(C)nc(NC(C)c2cn(-c3ccc(Cl)cc3)cn2)n1 (single isomer, unassigned) [Compound 1.51] | < 4.64
2 | CC(C)[C@H]1COC(=O)N1c1ncnc(N[C@H](C)c2ccc(Oc3ccccc3)cc2)n1 [Compound 1.8, (S)-4-isopropyl-3-(4-((R)-1-(4-phenoxyphenyl)ethylamino)-1,3,5-triazin-2-yl)oxazolidin-2-one] | < 4.52
3 | CC(C)[C@H]1COC(=O)N1c1ncnc(N[C@H](C)c2cn(-c3ccc(Cl)cc3)cn2)n1 [Compound 1.14, (S)-3-(4-((R)-1-(1-(4-chlorophenyl)-1H-imidazol-4-yl)ethylamino)-1,3,5-triazin-2-yl)-4-isopropyloxazolidin-2-one] | 4.61
4 | C[C@@H](Nc1ncnc(N2C(=O)OC[C@@H]2C)n1)c1ccc(Oc2ccccc2)cc1 [Compound 1.17, (S)-4-methyl-3-(4-((R)-1-(4-phenoxyphenyl)ethylamino)-1,3,5-triazin-2-yl)oxazolidin-2-one] | < 4.52
5 | CC(C)[C@H]1COC(=O)N1c1ncnc(N[C@H](C)c2ccc(Oc3ccccc3)cn2)n1 [Compound 1.18, (S)-4-isopropyl-3-(4-((R)-1-(5-phenoxypyridin-2-yl)ethylamino)-1,3,5-triazin-2-yl)oxazolidin-2-one] | < 4.52
6 | C[C@@H](Nc1ncnc(N2CCOC2=O)n1)c1ccc(Oc2ccccc2)cc1 [Compound 1.20] | < 4.52
7 | CC(C)[C@H]1COC(=O)N1c1ncnc(N[C@H](C)c2cc3cc(Cl)ccc3[nH]c2=O)n1 [Compound 1.22, (S)-3-(4-((R)-1-(6-chloro-2-oxo-1,2-dihydroquinolin-3-yl)ethylamino)-1,3,5-triazin-2-yl)-4-isopropyloxazolidin-2-one] | < 4.52
8 | CC(C)[C@H]1COC(=O)N1c1ncnc(N[C@@H](C)c2ccc(N3CCN(C)CC3)cn2)n1 [Compound 1.24, (S)-4-isopropyl-3-(4-((S)-1-(5-(4-methylpiperazin-1-yl)pyridin-2-yl)ethylamino)-1,3,5-triazin-2-yl)oxazolidin-2-one] | < 4.52
9 | CC(C)[C@H]1COC(=O)N1c1ncnc(N[C@H](C)c2ccc(N3CCN(C)CC3)cn2)n1 [Compound 1.25, (S)-4-isopropyl-3-(4-((R)-1-(5-(4-methylpiperazin-1-yl)pyridin-2-yl)ethylamino)-1,3,5-triazin-2-yl)oxazolidin-2-one] | < 4.52
10 | CC(C)[C@H]1COC(=O)N1c1ncnc(N[C@@H](C)c2ccccn2)n1 [Compound 1.30, (S)-4-isopropyl-3-(4-((S)-1-(pyridin-2-yl)ethylamino)-1,3,5-triazin-2-yl)oxazolidin-2-one] | < 4.52
11 | CC[C@H]1COC(=O)N1c1nc(C)nc(N[C@H](C)c2cc3cc(Cl)ccc3[nH]c2=O)n1 [Compound 1.39, (S)-3-(4-((R)-1-(6-chloro-2-oxo-1,2-dihydroquinolin-3-yl)ethylamino)-6-methyl-1,3,5-triazin-2-yl)-4-ethyloxazolidin-2-one] | < 4.52
12 | CC[C@H]1COC(=O)N1c1nc(C)nc(N[C@H](C)c2cc3ccccc3[nH]c2=O)n1 [Compound 1.46, (S)-4-ethyl-3-(4-methyl-6-((R)-1-(2-oxo-1,2-dihydroquinolin-3-yl)ethylamino)-1,3,5-triazin-2-yl) oxazolidin-2-one] | < 4.52
13 | CC[C@H]1COC(=O)N1c1nc(C)nc(N[C@H](C)c2cn3cc(Br)ccc3n2)n1 [Compound 1.48, (S)-3-(4-((R)-1-(6-bromoimidazo[1,2-a]pyridin-2-yl)ethylamino)-6-methyl-1,3,5-triazin-2-yl)-4-ethyloxazolidin-2-one] | < 4.52
14 | CC[C@H]1COC(=O)N1c1nc(C)nc(N[C@@H](C)c2cc3cc(Cl)cnc3[nH]c2=O)n1 [Compound 1.49, (S)-3-(4-((S)-1-(6-chloro-2-oxo-1,2-dihydro-1,8-naphthyridin-3-yl)ethylamino)-6-methyl-1,3,5-triazin-2-yl)-4-ethyloxazolidin-2-one] | < 4.52
15 | CC[C@H]1COC(=O)N1c1nc(C)nc(N[C@H](C)c2cc3cc(OC)ccc3[nH]c2=O)n1 [Compound 1.56, (S)-4-ethyl-3-(4-((R)-1-(6-methoxy-2-oxo-1,2-dihydroquinolin-3-yl)ethylamino)-6-methyl-1,3,5-triazin-2-yl)oxazolidin-2-one] | < 4.52
16 | Cc1nc(N[C@H](C)c2cc3cc(Cl)ccc3[nH]c2=O)nc(N2C(=O)OC[C@@H]2[C@H](C)F)n1 [Compound 1.60, (R)-3-(4-((R)-1-(6-chloro-2-oxo-1,2-dihydroquinolin-3-yl)ethylamino)-6-methyl-1,3,5-triazin-2-yl)-4-((S)-1-fluoroethyl)oxazolidin-2-one] | < 4.52
17 | CC[C@H]1COC(=O)N1c1nc(C)nc(N[C@H](C)c2ccc(OCc3ccccn3)cc2)n1 [Compound 1.61, (S)-4-ethyl-3-(4-methyl-6-((R)-1-(4-(pyridin-2-ylmethoxy)phenyl)ethylamino)-1,3,5-triazin-2-yl)oxazolidin-2-one] | 4.77
18 | CC[C@H]1COC(=O)N1c1nc(C)nc(N[C@@H](C)c2cnc3ccc(Cl)nn23)n1 [Compound 1.69, (S)-3-(4-((S)-1-(6-chloroimidazo[1,2-b]pyridazin-3-yl)ethylamino)-6-methyl-1,3,5-triazin-2-yl)-4-ethyloxazolidin-2-one] | < 4.52
19 | CC[C@H]1COC(=O)N1c1nc(C)nc(N[C@H](C)c2cnc3ccc(Cl)nn23)n1 [Compound 1.70, (S)-3-(4-((R)-1-(6-chloroimidazo[1,2-b]pyridazin-3-yl)ethylamino)-6-methyl-1,3,5-triazin-2-yl)-4-ethyloxazolidin-2-one] | < 4.52

The next compounds have a higher pIC50 than those just listed; values first:

Row | pIC50 | SMILES
20 | 5.17 | CC[C@H]1COC(=O)N1c1nc(C)nc(N[C@H](C)c2cc3cc(Cl)c(OC)cc3[nH]c2=O)n1 [Compound 1.43, (S)-3-(4-((R)-1-(6-chloro-7-methoxy-2-oxo-1,2-dihydroquinolin-3-yl)ethylamino)-6-methyl-1,3,5-triazin-2-yl)-4-ethyloxazolidin-2-one]
21 | 5.75 | CC[C@H]1COC(=O)N1c1nc(C)nc(N[C@@H](C)c2cc3ccccc3[nH]c2=O)n1 [Compound 1.45, (S)-4-ethyl-3-(4-methyl-6-((S)-1-(2-oxo-1,2-dihydroquinolin-3-yl)ethylamino)-1,3,5-triazin-2-yl)oxazolidin-2-one]
22 | 5.50 | CC[C@H]1COC(=O)N1c1nc(C)nc(N[C@@H](C)c2cn3cc(Br)ccc3n2)n1 [Compound 1.47, (S)-3-(4-((S)-1-(6-bromoimidazo[1,2-a]pyridin-2-yl)ethylamino)-6-methyl-1,3,5-triazin-2-yl)-4-ethyloxazolidin-2-one]
23 | 5.92 | CC[C@H]1COC(=O)N1c1nc(C)nc(N[C@@H](C)c2cc(C)c(-c3ccnc(C(F)(F)F)c3)cn2)n1 [Compound 1.54, (S)-4-ethyl-3-(4-methyl-6-((S)-1-(4-methyl-2′-(trifluoromethyl)-3,4′-bipyridin-6-yl)ethylamino)-1,3,5-triazin-2-yl)oxazolidin-2-one]
24 | 5.90 | CC[C@H]1COC(=O)N1c1nc(C)nc(N[C@@H](C)c2cc3cc(OC)ccc3[nH]c2=O)n1 [Compound 1.55, (S)-4-ethyl-3-(4-((S)-1-(6-methoxy-2-oxo-1,2-dihydroquinolin-3-yl)ethylamino)-6-methyl-1,3,5-triazin-2-yl)oxazolidin-2-one]
25 | 5.68 | CC[C@H]1COC(=O)N1c1nc(C)nc(NCc2cc3cc(Cl)ccc3[nH]c2=O)n1 [Compound 1.57, (S)-3-(4-((6-chloro-2-oxo-1,2-dihydroquinolin-3-yl)methylamino)-6-methyl-1,3,5-triazin-2-yl)-4-ethyloxazolidin-2-one]
26 | 5.48 | CC[C@H]1COC(=O)N1c1nc(C)nc(N[C@@H](C)c2ccc(OCc3ccccn3)cc2)n1 [Compound 1.62, (S)-4-ethyl-3-(4-methyl-6-((S)-1-(4-(pyridin-2-ylmethoxy)phenyl)ethylamino)-1,3,5-triazin-2-yl)oxazolidin-2-one]
27 | 5.62 | CC[C@H]1COC(=O)N1c1nc(N[C@@H](C)c2ccc(Oc3ccccc3)cc2)nc(N(C)C)n1 [Compound 1.63, (S)-3-(4-(dimethylamino)-6-((S)-1-(4-phenoxyphenyl)ethylamino)-1,3,5-triazin-2-yl)-4-ethyloxazolidin-2-one]
28 | 5.58 | Cc1nc(N[C@@H](C)c2ccc(Oc3ccccc3)cc2)nc(N2C(=O)OC[C@@H]2C)n1 [Compound 1.65, (S)-4-methyl-3-(4-methyl-6-((S)-1-(4-phenoxyphenyl)ethylamino)-1,3,5-triazin-2-yl)oxazolidin-2-one]
29 | 4.91 | CC[C@H]1COC(=O)N1c1nc(C)nc(N[C@H](C)c2cc3cc(Br)ccc3[nH]c2=O)n1 [Compound 1.67, (S)-3-(4-((R)-1-(6-bromo-2-oxo-1,2-dihydroquinolin-3-yl)ethylamino)-6-methyl-1,3,5-triazin-2-yl)-4-ethyloxazolidin-2-one]
30 | 5.80 | CC[C@H]1COC(=O)N1c1nc(C)nc(N[C@@H](C)c2ccc(-c3ccc(F)c(C)c3)cn2)n1 [Compound 1.68, (S)-4-ethyl-3-(4-((S)-1-(5-(4-fluoro-3-methylphenyl)pyridin-2-yl)ethylamino)-6-methyl-1,3,5-triazin-2-yl)oxazolidin-2-one]
